Experiment: Hygroscopicity: water content of crystals after storage in dessicator
Type: physicochemical
Conditions: after 24 hours inside a dessicator at 60° C. and humidity of 100%
Method: For example, Aripiprazole Anhydride Crystals B of the present invention maintain a water content of 0.4% or less after 24 hours inside a dessicator set at a temperature of 60° C. and a humidity of 100%.
Well-known methods of measuring water content can be used as long as they are methods commonly used for measuring the water content of crystals. For example, a method such as the Karl Fischer method can be used.

water content: ≤ 0.4%
SMILES: O=C1CCc2ccc(OCCCCN3CCN(c4cccc(Cl)c4Cl)CC3)cc2N1 [Aripiprazole Anhydride Crystals B, aripiprazole]

— patent publication US9358207B2, “Flashmelt oral dosage formulation” (OTSUKA PHARMACEUTICAL CO., LTD., priority 2000, dated 2016)
